# Measurements reported in patent US7109380B2, “Cyclopentenedione antifungal compounds and methods for their use” (The University of Mississippi, priority 2004, dated 2006).
# Tests used:
# Type in all cases: cell-based
# Botrytis cinerea = test: 96-well microtiter fungal growth assay;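 also: percent relative to untreated positive growth controls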
# Text: (§1) Pathogen collection. Isolates of Colletotrichum acutatum Simmonds, Colletotrichum fragariae Brooks, and Colletotrichum gloeosporioides (Penz.) Penz. & Sacc. in Penz. were obtained from B. J. Smith, USDA, ARS, Small Fruit Research Station, Poplarville, Mass. Colletotrichum fragariae (isolate CF63), C. acutatum (isolate CAGoff), and C. gloeosporioides (isolate CG162) were used for all pathogen and bioautography studies. Isolate CF63 is one of the most virulent isolates at infecting strawberry plants and inducing both crown and fruit rot (Smith and Black, 1990). CF63, CAGoff, and CG162 were used as standard test isolates because of our extensive knowledge of these isolates and their known fungicide sensitivity profiles in both bioautography and microtiter formats. The three Colletotrichum species were isolated from strawberry (Fragaria xananassa Duchesne). Botrytis cinerea Pers.:Fr, was isolated from commercial grape (Vitis vinifera L.) and Fusarium oxysporum Schlechtend:Fr from orchid (Cynoches sp.) by David E. Wedge, USDA ARS Natural Products Utilization Research Unit. Phomopsis viticola (Sacc.) and P. obscurans (Ellis & Everh.) Sutton were from Mike A. Ellis, Ohio State University, Wooster, Ohio. Fungi were grown on potato-dextrose agar (PDA, Difco, Detroit Mich.) in 9 cm petri dishes and incubated in a growth chamber at 24±2° C. and under cool-white fluorescent lights ([…]·m^−2·sec^−1 light) with 12-h photoperiod.
# (§2) Inoculum preparation. Conidia were harvested from 7–10 day-old cultures by flooding plates with 5 mL of sterile distilled water and dislodging conidia by softly brushing the colonies with an L-shaped glass rod. Conidial suspensions were filtered through sterile miracloth (Calbiochem-Novabiochem Corp., La Jolla Calif.) to remove mycelia. Conidia concentrations were determined photometrically, from a standard curve based on the absorbance at 625 nm and suspensions were then adjusted with sterile distilled water to a concentration of 1.0×10^6 conidia/mL.
# (§3) Microtiter assay. A standardized 96-well microtiter plate assay developed for discovery of natural product fungicidal agents. A 96-well microtiter assay was used to determine sensitivity of B. cinerea, C. acutatum, C. fragariae, C. gloeosporioides, F. oxysporum, Phomopsis viticola, and P. obscurans to the various antifungal agents in comparison with known fungicidal standards. Vinclozolin, captan, and thiabendazole, which represent three different modes of action, were used as standards in this experiment. Each fungus was challenged in a dose-response format using test compounds where the final treatment concentrations were 0.3, 3.0 and 30.0 μM. Microtiter plates (Nunc MicroWell, untreated; Roskilde, Denmark) were covered with a plastic lid and incubated in a growth chamber at 24±1 C and 12 h photoperiod under 60±5 μmol light. Growth was then evaluated by measuring absorbance of each well at 620 nm using a microplate photometer (Packard Spectra Count, Packard Instrument Co., Downers Grove, Ill.).
# (§4) Microbioassay Experimental Design. Chemical sensitivity of each fungus 96-well microtiter assay is used to determine sensitivity of B. cinerea, C. acutatum, C. fragariae, C. gloeosporioides, F. oxysporum, Phomopsis viticola, and P. obscurans. Each chemical is evaluated in duplicate at each dose (0.3, 3.0 and 30.0 μM) and repeated twice in time. Sixteen wells containing broth and inoculum serves as positive controls, eight wells containing solvent at the appropriate concentration and broth without inoculum are used as negative controls. Mean absorbance values and standard errors is used to evaluate fungal growth at 48 hrs and 72 hrs except for P. obscurans and P. viticola the data are recorded at 120 hrs. […] Treatments are arranged as a split-plot design replicated twice in time. Whole-plots were fungal isolates and sub-plots are chemicals. Each dose level and response time is analyzed separately. […]
# Colletotrichum acutatum = test: 96-well microtiter fungal growth assay;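 also: percent relative to untreated positive growth controls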
# Text: as §1, §2, §3, §4
# Colletotrichum fragariae = test: 96-well microtiter fungal growth assay;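 also: percent relative to untreated positive growth controls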
# Text: as §1, §2, §3, §4
# [1] = system: Colletotrichum gloeosporioides; test: 96-well microtiter fungal growth assay;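 also: percent relative to untreated positive growth controls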
# Text: as §1, §2, §3, §4
# Fusarium oxysporum = test: 96-well microtiter fungal growth assay;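 also: percent relative to untreated positive growth controls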
# Text: as §1, §2, §3, §4
# Phomopsis obscurans = test: 96-well microtiter fungal growth assay
# Text: as §1, §2, §3
# (§5) Microbioassay Experimental Design. Chemical sensitivity of each fungus 96-well microtiter assay is used to determine sensitivity of B. cinerea, C. acutatum, C. fragariae, C. gloeosporioides, F. oxysporum, Phomopsis viticola, and P. obscurans. Each chemical is evaluated in duplicate at each dose (0.3, 3.0 and 30.0 μM) and repeated twice in time. Sixteen wells containing broth and inoculum serves as positive controls, eight wells containing solvent at the appropriate concentration and broth without inoculum are used as negative controls. […] Treatments are arranged as a split-plot design replicated twice in time. Whole-plots were fungal isolates and sub-plots are chemicals. Each dose level and response time is analyzed separately. The SAS system's analysis of variance procedure (Statistical Analysis System, Cary, N.C.) is used to identify significant factors and Fisher's protected LSD is used to separate means.
# Phomopsis viticola = test: 96-well microtiter fungal growth assay;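 also: percent relative to untreated positive growth controls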
# Text: as §1, §2, §3, §5
# [2] = system: Azole-susceptible and Azole-resistant Candida albicans Strains; test: Antifungal activity against azole-susceptible and azole-resistant patient isolates; conditions: for IC50 / IC80: Candida albicans
# Description: Antimicrobial Assay. Susceptibility testing is performed using a modified version of the National Committee for Clinical Laboratory Standards methods. M intracelluare is tested using a modified method of Franzblau, et al. Seventy-two to 96 h prior to the assay, the M intracellulare subculture is prepared by resuspending cells from the surface of the slant in Middlebrook 7H9 broth with OADC enrichment and incubating at 37° C. and 10% CO2. On the day of the assay, prepared samples (dissolved in DMSO) are serially-diluted using 20%/0.9% DMSO/saline and transferred in duplicate to 96 well flat bottom microplates. Candida spp. and C. neoformans inocula are prepared by picking 1–3 colonies from agar plates and resuspending in ˜5 mL 0.9% sterile saline. The absorption of 10011 of the saline suspensions and the M. intracellulare subculture at 630 nm using the EL-340 Biokinetics Reader (Bio-Tek Instruments, Vermont) is compared either the 0.5 McFarland standard of 0.03 (Mi) or standard curves. The microorganisms are diluted in broth [RPMI 1640/2% dextrose/MOPS at pH 7.3 (Cellgro) for Candida spp., Sabouraud Dextrose for C. neoformans, and 5% Alamar Blue™(BioSource International, Camarillo, Calif.) in Middlebrook 7H9 broth with OADC enrichment, pH=7.3 for M. intracellulare to afford final target inocula of: Candida spp.: 1.0×10^4, C. neoformans: 1.0×10^5, and M. intracellulare: 2.0×10^6 after addition to the samples. The microbial inocula are added to the samples to achieve a final volume of 200 μl. Growth (saline only), solvent and blank (media only) controls are included on each test plate. Drug controls [Ciprofloxacin (ICN Biomedicals, Ohio) for bacteria and Amphotericin B (ICN Biomedicals, Ohio) for fungi] are included in each assay. All organisms are read at either 630 nm using the EL-340 Biokinetics Reader (Bio-Tek Instruments, Vermont) or 544ex/590em, (M. intracellulare) using the Polarstar Galaxy Plate Reader (BMG LabTechnologies, Germany) prior to and after incubation: Candida spp. at 37° C. for 18–24 h, C. neoformans at 30° C. for 72 h, and M. intracellulare at 37° C. and 10% CO2 for 72 h. Percent growth is calculated and plotted versus test concentration to afford the IC50 (sample concentration that affords 50% growth of the organism) and the minimum inhibitory concentration (MIC) and minimum fungicidal or bactericidal concentrations (MFC/MBCs). The MIC is defined as the lowest test concentration that allows no detectable growth (for M. intracellulare no color change from blue to pink). Minimum fungicidal or bactericidal concentrations are determined by removing 5 μl from each clear (or blue) well, transferring to agar and incubating as previously mentioned. The MFC/MBC is defined as the lowest test concentration that kills 100% of the organism (allows no growth on agar).
# The bioassay method is a modified version of the National Committee for Clinical Laboratory Standards methods, and is same as the one described in example 8 by which the biological data of compounds 1 and 2 (Tables 1 and 2) were obtained, except that the pH of the culture media for Candida spp. was changed from 7.3 to 4.5.
# [3] = Isolate 1, azole-susceptible strain (first listing, r6)
# [4] = Isolate 1, azole-susceptible strain (second listing, r10)
# [5] = Isolate 2, azole-resistant strain
# [6] = Isolate 5, azole-resistant strain
# [7] = Isolate 8, azole-resistant strain
# [8] = Isolate 17, azole-resistant strain
structure (smiles),measurement,setting,value
CO/C=C(/C(=O)OC)c1ccccc1Oc1cc(Oc2ccccc2C#N)ncn1 [Azoxystrobin],Mean percent fungal growth inhibition of Botrytis cinerea,"Botrytis cinerea; 0.3 μm, 48 hrs",−30.4 ± 40.8%
same,Mean percent fungal growth inhibition of Botrytis cinerea,"Botrytis cinerea; 0.3 μm, 72 hrs",−67.3 ± 7.6%
same,Mean percent fungal growth inhibition of Botrytis cinerea,"Botrytis cinerea; 3.0 μm, 48 hrs",−45.8 ± 32.5%
same,Mean percent fungal growth inhibition of Botrytis cinerea,"Botrytis cinerea; 3.0 μm, 72 hrs",−79.8 ± 3.6%
same,Mean percent fungal growth inhibition of Botrytis cinerea,"Botrytis cinerea; 30 μm, 48 hrs",−58.3 ± 26.5%
same,Mean percent fungal growth inhibition of Botrytis cinerea,"Botrytis cinerea; 30 μm, 72 hrs",−89.1 ± 2.1%
same,Mean percent fungal growth inhibition of Colletotrichum acutatum,"Colletotrichum acutatum; 0.3 μm, 48 hrs",−75.1 ± 1.8%
same,Mean percent fungal growth inhibition of Colletotrichum acutatum,"Colletotrichum acutatum; 0.3 μm, 72 hrs",−46.0 ± 1.4%
same,Mean percent fungal growth inhibition of Colletotrichum acutatum,"Colletotrichum acutatum; 3.0 μm, 48 hrs",−89.2 ± 1.8%
same,Mean percent fungal growth inhibition of Colletotrichum acutatum,"Colletotrichum acutatum; 3.0 μm, 72 hrs",−77.4 ± 1.6%
same,Mean percent fungal growth inhibition of Colletotrichum acutatum,"Colletotrichum acutatum; 30 μm, 48 hrs",−94.3 ± 1.1%
same,Mean percent fungal growth inhibition of Colletotrichum acutatum,"Colletotrichum acutatum; 30 μm, 72 hrs",−84.1 ± 0.8%
same,Mean percent fungal growth inhibition of Colletotrichum fragariae,"Colletotrichum fragariae; 0.3 μm, 48 hrs",−68.8 ± 4.0%
same,Mean percent fungal growth inhibition of Colletotrichum fragariae,"Colletotrichum fragariae; 0.3 μm, 72 hrs",−33.5 ± 17.4%
same,Mean percent fungal growth inhibition of Colletotrichum fragariae,"Colletotrichum fragariae; 3.0 μm, 48 hrs",−78.9 ± 4.4%
same,Mean percent fungal growth inhibition of Colletotrichum fragariae,"Colletotrichum fragariae; 3.0 μm, 72 hrs",−80.6 ± 4.8%
same,Mean percent fungal growth inhibition of Colletotrichum fragariae,"Colletotrichum fragariae; 30 μm, 48 hrs",−82.0 ± 4.9%
same,Mean percent fungal growth inhibition of Colletotrichum fragariae,"Colletotrichum fragariae; 30 μm, 72 hrs",−86.4 ± 4.5%
same,Mean percent fungal growth inhibition of Colletotrichum gloeosporoides,"[1]; 0.3 μm, 48 hrs",−91.2 ± 2.1%
same,Mean percent fungal growth inhibition of Colletotrichum gloeosporoides,"[1]; 0.3 μm, 72 hrs",−71.0 ± 1.4%
same,Mean percent fungal growth inhibition of Colletotrichum gloeosporoides,"[1]; 3.0 μm, 48 hrs",−96.3 ± 0.9%
same,Mean percent fungal growth inhibition of Colletotrichum gloeosporoides,"[1]; 3.0 μm, 72 hrs",−87.6 ± 2.0%
same,Mean percent fungal growth inhibition of Colletotrichum gloeosporoides,"[1]; 30 μm, 48 hrs",−97.7 ± 0.5%
same,Mean percent fungal growth inhibition of Colletotrichum gloeosporoides,"[1]; 30 μm, 72 hrs",−89.8 ± 1.1%
same,Mean percent fungal growth inhibition of Fusarium oxysporum,"Fusarium oxysporum; 0.3 μm, 48 hrs",−13.0 ± 6.0%
same,Mean percent fungal growth inhibition of Fusarium oxysporum,"Fusarium oxysporum; 0.3 μm, 72 hrs",3.8 ± 3.6%
same,Mean percent fungal growth inhibition of Fusarium oxysporum,"Fusarium oxysporum; 3.0 μm, 48 hrs",−66.4 ± 1.4%
same,Mean percent fungal growth inhibition of Fusarium oxysporum,"Fusarium oxysporum; 3.0 μm, 72 hrs",−40.1 ± 3.5%
same,Mean percent fungal growth inhibition of Fusarium oxysporum,"Fusarium oxysporum; 30 μm, 48 hrs",−87.3 ± 0.6%
same,Mean percent fungal growth inhibition of Fusarium oxysporum,"Fusarium oxysporum; 30 μm, 72 hrs",−64.6 ± 0.8%
same,Percent change in fungal growth vs control (negative = inhibition),"Phomopsis obscurans; 0.3 μm, 120 hrs",−73.2 ± 6.7%
same,Percent change in fungal growth vs control (negative = inhibition),"Phomopsis obscurans; 0.3 μm, 144 hrs",−70.2 ± 7.0%
same,Percent change in fungal growth vs control (negative = inhibition),"Phomopsis obscurans; 3.0 μm, 120 hrs",−90.9 ± 6.5%
same,Percent change in fungal growth vs control (negative = inhibition),"Phomopsis obscurans; 3.0 μm, 144 hrs",−87.5 ± 5.3%
same,Percent change in fungal growth vs control (negative = inhibition),"Phomopsis obscurans; 30 μm, 120 hrs",−99.3 ± 0.5%
same,Percent change in fungal growth vs control (negative = inhibition),"Phomopsis obscurans; 30 μm, 144 hrs",−98.2 ± 0.6%
same,Mean percent fungal growth inhibition of Phomopsis viticola,"Phomopsis viticola; 0.3 μm, 120 hrs",−29.5 ± 45.0%
same,Mean percent fungal growth inhibition of Phomopsis viticola,"Phomopsis viticola; 0.3 μm, 144 hrs",−73.4 ± 16.0%
same,Mean percent fungal growth inhibition of Phomopsis viticola,"Phomopsis viticola; 3.0 μm, 120 hrs",−124.5 ± 33.0%
same,Mean percent fungal growth inhibition of Phomopsis viticola,"Phomopsis viticola; 30 μm, 120 hrs",−154.1 ± 39.4%
same,Mean percent fungal growth inhibition of Phomopsis viticola,"Phomopsis viticola; 30 μm, 144 hrs",−97.9 ± 1.3%
CCCCNC(=O)n1c(NC(=O)OC)nc2ccccc21 [benomyl],IC50,"Phomopsis obscurans; Paraphomopsis obscurans, 120 h, read-out: IC50 (growth inhibition)",< 6.25 µM
"OC(Cn1cncn1)(Cn1cncn1)c1ccc(F)cc1F [Fluconazole, reference compound]",IC50,[2]; [3],1 µg/mL
same,IC80,[2]; [3],1.5 µg/mL
same,IC50,[2]; [4],0.1 µg/mL
same,IC80,[2]; [4],0.2 µg/mL
same,IC50,[2]; [5],1 µg/mL
same,IC80,[2]; [5],5 µg/mL
same,IC50,[2]; [6],7.5 µg/mL
same,IC80,[2]; [6],10 µg/mL
same,IC50,[2]; [7],15 µg/mL
same,IC80,[2]; [7],20 µg/mL
same,IC50,[2]; [8],40 µg/mL
same,IC80,[2]; [8],95 µg/mL
same,IC95,[2]; [3],2.00 µg/mL
same,IC95,[2]; [4],100.00 µg/mL
same,IC95,[2]; [5],10.00 µg/mL
same,IC95,[2]; [6],10.00 µg/mL
same,IC95,[2]; [7],25.00 µg/mL
same,Decreases in susceptibility to fluconazole of the isolates,[2]; resistant isolates relative to susceptible strain,up to 400 fold
